Measurements reported in ChEMBL document CHEMBL5335833, “Asperustins A-J: Austocystins with Immunosuppressive and Cytotoxic Activities from Aspergillus ustus NRRL 5856” (J Nat Prod, 2024).

System: Splenocyte
Assay: Immunosuppressive activity in BALB/c mouse splenocytes assessed as reduction in ConA-induced mouse T-lymphocytes proliferation
Type: functional, cell-based
Conditions: not given

Row | SMILES | IC50 [µM]
1 | COC1=C2C(=CC3Oc4c(CCC(C)(C)O)ccc(O)c4C(=O)C13)O[C@H]1OC=C[C@@H]21 (stereo not given in full) | 4
2 | CC(C)(O)C[C@H](O)c1ccc(O)c2c1OC1C=C3O[C@H]4OC=C[C@@]4(O)C3=C(O)C1C2=O (stereo not given in full) | 0.93
3 | CCCCC[C@H](O)c1c(O)cc2c(c1O)C(=O)C1C(O)=CC(O)=CC1C2=O (stereo not given in full) | > 40
4 | CCCCC[C@H](OC)c1c(O)cc2c(c1O)C(=O)C1C(O)=CC(O)=CC1C2=O (stereo not given in full) | > 40
5 | C[C@]12CCC[C@H](O1)c1c(cc3c(c1O)C(=O)c1c(O)cc(O)cc1C3=O)O2 | 4.8
6 | COc1ccc(CCC(C)(C)O)c2c1C(=O)C1C(O)=C3C(=CC1O2)O[C@H]1OC=C[C@@]31O (stereo not given in full) | 1
7 | COC1=C2C(=CC3Oc4ccc(Cl)c(OC)c4C(=O)C13)O[C@H]1O[C@H](OC(C)=O)C[C@@H]21 (stereo not given in full) | 16
8 | CO[C@@H]1C[C@H]2C3=C(O)C4C(=O)c5c(O)ccc(CCC(C)(C)O)c5OC4C=C3O[C@H]2O1 (stereo not given in full) | 2.1
9 | CC(C)(O)C[C@H](O)c1ccc(O)c2c1OC1C=C3O[C@H]4OC=C[C@H]4C3=C(O)C1C2=O (stereo not given in full) | 1.2
10 | CC(C)(O)CCc1ccc(O)c2c1OC1C=C3O[C@H]4OCC[C@H]4C3=C(O)C1C2=O (stereo not given in full) | 1
11 | CO[C@@H]1C[C@@]2(O)C3=C(O)C4C(=O)c5c(O)ccc(CCC(C)(C)O)c5OC4C=C3O[C@H]2O1 (stereo not given in full) | 1.3

System: not listed separately
Assay: Cytotoxicity against mouse B-lymphocytes
Type: toxicity, cell-based, B-cell
Conditions: not given

Row | SMILES | CC50 [µM]
12 | COC1=C2C(=CC3Oc4c(CCC(C)(C)O)ccc(O)c4C(=O)C13)O[C@H]1OC=C[C@@H]21 (stereo not given in full) | 17
13 | CC(C)(O)C[C@H](O)c1ccc(O)c2c1OC1C=C3O[C@H]4OC=C[C@@]4(O)C3=C(O)C1C2=O (stereo not given in full) | 16
14 | CCCCC[C@H](O)c1c(O)cc2c(c1O)C(=O)C1C(O)=CC(O)=CC1C2=O (stereo not given in full) | > 40
15 | CCCCC[C@H](OC)c1c(O)cc2c(c1O)C(=O)C1C(O)=CC(O)=CC1C2=O (stereo not given in full) | > 40
16 | C[C@]12CCC[C@H](O1)c1c(cc3c(c1O)C(=O)c1c(O)cc(O)cc1C3=O)O2 | > 40
17 | COc1ccc(CCC(C)(C)O)c2c1C(=O)C1C(O)=C3C(=CC1O2)O[C@H]1OC=C[C@@]31O (stereo not given in full) | 14
18 | COC1=C2C(=CC3Oc4ccc(Cl)c(OC)c4C(=O)C13)O[C@H]1O[C@H](OC(C)=O)C[C@@H]21 (stereo not given in full) | 28
19 | CO[C@@H]1C[C@H]2C3=C(O)C4C(=O)c5c(O)ccc(CCC(C)(C)O)c5OC4C=C3O[C@H]2O1 (stereo not given in full) | 12
20 | CC(C)(O)C[C@H](O)c1ccc(O)c2c1OC1C=C3O[C@H]4OC=C[C@H]4C3=C(O)C1C2=O (stereo not given in full) | 8.1
21 | CC(C)(O)CCc1ccc(O)c2c1OC1C=C3O[C@H]4OCC[C@H]4C3=C(O)C1C2=O (stereo not given in full) | 5.2
22 | CO[C@@H]1C[C@@]2(O)C3=C(O)C4C(=O)c5c(O)ccc(CCC(C)(C)O)c5OC4C=C3O[C@H]2O1 (stereo not given in full) | 7.7

System: not listed separately
Assay: Selectivity index, ratio of CC50 for cytotoxicity against mouse T lymphocytes to IC50 for Immunosuppressive activity in BALB/c mouse splenocytes assessed as reduction in ConA-induced mouse T-lymphocytes proliferation
Type: toxicity, cell-based
Conditions: not given

Row | SMILES | selectivity ratio
23 | COC1=C2C(=CC3Oc4c(CCC(C)(C)O)ccc(O)c4C(=O)C13)O[C@H]1OC=C[C@@H]21 (stereo not given in full) | 4.3
24 | CC(C)(O)C[C@H](O)c1ccc(O)c2c1OC1C=C3O[C@H]4OC=C[C@@]4(O)C3=C(O)C1C2=O (stereo not given in full) | 17
25 | C[C@]12CCC[C@H](O1)c1c(cc3c(c1O)C(=O)c1c(O)cc(O)cc1C3=O)O2 | > 8.3
26 | COc1ccc(CCC(C)(C)O)c2c1C(=O)C1C(O)=C3C(=CC1O2)O[C@H]1OC=C[C@@]31O (stereo not given in full) | 14
27 | COC1=C2C(=CC3Oc4ccc(Cl)c(OC)c4C(=O)C13)O[C@H]1O[C@H](OC(C)=O)C[C@@H]21 (stereo not given in full) | 1.8
28 | CO[C@@H]1C[C@H]2C3=C(O)C4C(=O)c5c(O)ccc(CCC(C)(C)O)c5OC4C=C3O[C@H]2O1 (stereo not given in full) | 5.7
29 | CC(C)(O)C[C@H](O)c1ccc(O)c2c1OC1C=C3O[C@H]4OC=C[C@H]4C3=C(O)C1C2=O (stereo not given in full) | 6.8
30 | CC(C)(O)CCc1ccc(O)c2c1OC1C=C3O[C@H]4OCC[C@H]4C3=C(O)C1C2=O (stereo not given in full) | 5.2
31 | CO[C@@H]1C[C@@]2(O)C3=C(O)C4C(=O)c5c(O)ccc(CCC(C)(C)O)c5OC4C=C3O[C@H]2O1 (stereo not given in full) | 5.9

System: not listed separately
Assay: Cytotoxicity against mouse T-lymphocytes
Type: toxicity, cell-based, T-cell
Conditions: not given

Row | SMILES | CC50 [µM]
32 | COC1=C2C(=CC3Oc4c(CCC(C)(C)O)ccc(O)c4C(=O)C13)O[C@H]1OC=C[C@@H]21 (stereo not given in full) | 17
33 | CC(C)(O)C[C@H](O)c1ccc(O)c2c1OC1C=C3O[C@H]4OC=C[C@@]4(O)C3=C(O)C1C2=O (stereo not given in full) | 16
34 | CCCCC[C@H](O)c1c(O)cc2c(c1O)C(=O)C1C(O)=CC(O)=CC1C2=O (stereo not given in full) | > 40
35 | CCCCC[C@H](OC)c1c(O)cc2c(c1O)C(=O)C1C(O)=CC(O)=CC1C2=O (stereo not given in full) | > 40
36 | C[C@]12CCC[C@H](O1)c1c(cc3c(c1O)C(=O)c1c(O)cc(O)cc1C3=O)O2 | > 40
37 | COc1ccc(CCC(C)(C)O)c2c1C(=O)C1C(O)=C3C(=CC1O2)O[C@H]1OC=C[C@@]31O (stereo not given in full) | 14
38 | COC1=C2C(=CC3Oc4ccc(Cl)c(OC)c4C(=O)C13)O[C@H]1O[C@H](OC(C)=O)C[C@@H]21 (stereo not given in full) | 28
39 | CO[C@@H]1C[C@H]2C3=C(O)C4C(=O)c5c(O)ccc(CCC(C)(C)O)c5OC4C=C3O[C@H]2O1 (stereo not given in full) | 12
40 | CC(C)(O)C[C@H](O)c1ccc(O)c2c1OC1C=C3O[C@H]4OC=C[C@H]4C3=C(O)C1C2=O (stereo not given in full) | 8.1
41 | CC(C)(O)CCc1ccc(O)c2c1OC1C=C3O[C@H]4OCC[C@H]4C3=C(O)C1C2=O (stereo not given in full) | 5.2
42 | CO[C@@H]1C[C@@]2(O)C3=C(O)C4C(=O)c5c(O)ccc(CCC(C)(C)O)c5OC4C=C3O[C@H]2O1 (stereo not given in full) | 7.7

System: not listed separately
Assay: Selectivity index, ratio of CC50 for cytotoxicity against mouse T lymphocytes to IC50 for Immunosuppressive activity in BALB/c mouse splenocytes assessed as reduction in […]-induced mouse B-lymphocytes proliferation
Type: toxicity, cell-based
Conditions: not given

Row | SMILES | selectivity ratio
43 | COC1=C2C(=CC3Oc4c(CCC(C)(C)O)ccc(O)c4C(=O)C13)O[C@H]1OC=C[C@@H]21 (stereo not given in full) | 2.9
44 | CC(C)(O)C[C@H](O)c1ccc(O)c2c1OC1C=C3O[C@H]4OC=C[C@@]4(O)C3=C(O)C1C2=O (stereo not given in full) | 1.3
45 | CCCCC[C@H](O)c1c(O)cc2c(c1O)C(=O)C1C(O)=CC(O)=CC1C2=O (stereo not given in full) | > 2.4
46 | C[C@]12CCC[C@H](O1)c1c(cc3c(c1O)C(=O)c1c(O)cc(O)cc1C3=O)O2 | > 1.8
47 | COc1ccc(CCC(C)(C)O)c2c1C(=O)C1C(O)=C3C(=CC1O2)O[C@H]1OC=C[C@@]31O (stereo not given in full) | 1.7
48 | COC1=C2C(=CC3Oc4ccc(Cl)c(OC)c4C(=O)C13)O[C@H]1O[C@H](OC(C)=O)C[C@@H]21 (stereo not given in full) | 1.4
49 | CO[C@@H]1C[C@H]2C3=C(O)C4C(=O)c5c(O)ccc(CCC(C)(C)O)c5OC4C=C3O[C@H]2O1 (stereo not given in full) | 2.5
50 | CC(C)(O)C[C@H](O)c1ccc(O)c2c1OC1C=C3O[C@H]4OC=C[C@H]4C3=C(O)C1C2=O (stereo not given in full) | 1.1
51 | CC(C)(O)CCc1ccc(O)c2c1OC1C=C3O[C@H]4OCC[C@H]4C3=C(O)C1C2=O (stereo not given in full) | 1.4
52 | CO[C@@H]1C[C@@]2(O)C3=C(O)C4C(=O)c5c(O)ccc(CCC(C)(C)O)c5OC4C=C3O[C@H]2O1 (stereo not given in full) | 2

System: Splenocyte
Assay: Immunosuppressive activity in BALB/c mouse splenocytes assessed as reduction in […]-induced mouse B-lymphocyte proliferation
Type: functional, cell-based
Conditions: not given

Row | SMILES | IC50
53 | COC1=C2C(=CC3Oc4c(CCC(C)(C)O)ccc(O)c4C(=O)C13)O[C@H]1OC=C[C@@H]21 (stereo not given in full) | 5.8 µM
54 | CC(C)(O)C[C@H](O)c1ccc(O)c2c1OC1C=C3O[C@H]4OC=C[C@@]4(O)C3=C(O)C1C2=O (stereo not given in full) | 12 µM
55 | CCCCC[C@H](O)c1c(O)cc2c(c1O)C(=O)C1C(O)=CC(O)=CC1C2=O (stereo not given in full) | 17 µM
56 | CCCCC[C@H](OC)c1c(O)cc2c(c1O)C(=O)C1C(O)=CC(O)=CC1C2=O (stereo not given in full) | > 40 µM
57 | C[C@]12CCC[C@H](O1)c1c(cc3c(c1O)C(=O)c1c(O)cc(O)cc1C3=O)O2 | 22 µM
58 | COc1ccc(CCC(C)(C)O)c2c1C(=O)C1C(O)=C3C(=CC1O2)O[C@H]1OC=C[C@@]31O (stereo not given in full) | 8.4 µM
59 | COC1=C2C(=CC3Oc4ccc(Cl)c(OC)c4C(=O)C13)O[C@H]1O[C@H](OC(C)=O)C[C@@H]21 (stereo not given in full) | 20 µM
60 | COc1c(C)c2c(c(O)c1C/C=C(\C)CCC(=O)OCCN1CCOCC1)C(=O)OC2 [MYCOPHENOLATE MOFETIL] | 0.21 µg/mL
61 | CO[C@@H]1C[C@H]2C3=C(O)C4C(=O)c5c(O)ccc(CCC(C)(C)O)c5OC4C=C3O[C@H]2O1 (stereo not given in full) | 4.8 µM
62 | CC(C)(O)C[C@H](O)c1ccc(O)c2c1OC1C=C3O[C@H]4OC=C[C@H]4C3=C(O)C1C2=O (stereo not given in full) | 7.5 µM
63 | CC(C)(O)CCc1ccc(O)c2c1OC1C=C3O[C@H]4OCC[C@H]4C3=C(O)C1C2=O (stereo not given in full) | 3.6 µM
64 | CO[C@@H]1C[C@@]2(O)C3=C(O)C4C(=O)c5c(O)ccc(CCC(C)(C)O)c5OC4C=C3O[C@H]2O1 (stereo not given in full) | 3.8 µM

System: Splenocyte
Assay: Immunosuppressive activity in LPS-induced BALB/c mouse splenocyte assessed as reduction in IL-6 cytokine level incubated for 48 hrs by ELISA assay
Type: functional, cell-based
Conditions: dose 0.2-5 µM

Row | SMILES | Activity
65 | CC(C)(O)C[C@H](O)c1ccc(O)c2c1OC1C=C3O[C@H]4OC=C[C@@]4(O)C3=C(O)C1C2=O (stereo not given in full) | Dose-Dependent Effect
66 | COc1ccc(CCC(C)(C)O)c2c1C(=O)C1C(O)=C3C(=CC1O2)O[C@H]1OC=C[C@@]31O (stereo not given in full) | Dose-Dependent Effect

System: MCF7
Assay: Cytotoxicity against human MCF7 cells
Type: functional, cell-based
Conditions: not given

Row | SMILES | IC50 [µM]
67 | COC1=C2C(=CC3Oc4c(CCC(C)(C)O)ccc(O)c4C(=O)C13)O[C@H]1OC=C[C@@H]21 (stereo not given in full) | 0.46
68 | CC(C)(O)C[C@H](O)c1ccc(O)c2c1OC1C=C3O[C@H]4OC=C[C@@]4(O)C3=C(O)C1C2=O (stereo not given in full) | 0.46
69 | COc1ccc(CCC(C)(C)O)c2c1C(=O)C1C(O)=C3C(=CC1O2)O[C@H]1OC=C[C@@]31O (stereo not given in full) | 0.46
70 | CC(C)(O)C[C@H](O)c1ccc(O)c2c1OC1C=C3O[C@H]4OC=C[C@H]4C3=C(O)C1C2=O (stereo not given in full) | 0.46
